One data set relates to db/db mice. Briefly: Diabetes mellitus model (db/db mice). Particulars: for blood glucose level: 50 mg/kg intragastric once a day for 28 days (FIG. 7); for AHDL (high density lipoprotein) / ALDL (low density lipoprotein) / ALT / AST / BUN / CHOL (total cholesterol) / CK / CREA / TGL (triglycerides) / fat content in the liver (Oil red O and H.E. staining): intragastric once a day for 28 days; for AHDL (high density lipoprotein) / ALDL (low density lipoprotein) / ALT / AST / BUN / CHOL (total cholesterol) / CK / CREA / TGL (triglycerides): 50 mg/kg (pioglitazone 6 mg/kg); for fat content in the liver (Oil red O and H.E. staining): 50 mg/kg (pioglitazone 6 mg/kg) (FIGS. 8A-8B). The data set is classed as in vivo, mouse. An excerpt:
Animal model: C57BL/KsJ-leprdb/leprdb diabetic (db/db) mice were widely used as animal models of type 2 diabetes mellitus, in which spontaneous mutations of leptin receptor (Leptin receptor, Lepr) caused extreme obesity, polyphagia, diabetes and polyuria. In this experiment, db/db mice (purchased from the Department of Animals, Health Science Center of Peking University) were selected. In the experiment, 28 db/db mice were used, and the animals with blood glucose of about 7-13 mmol/L were selected. […] Intragastric administration was adopted with an administration volume of 10 ml/kg. […] The administration was performed once a day for 28 consecutive days. From the day of oral administration, the physiological changes of the animals were observed every day. Blood glucose was measured every 3 days (Roche blood glucose meter) and blood glucose difference (Δ) was calculated by the following formula: blood glucose difference (Δ)=the blood glucose of the day—the initial blood glucose (the initial blood glucose difference was zero). For mice in each experimental group, blood was collected, serum was separated, and liver was taken for wet-weight measurement after necropsy; liver tissue was taken and fixed for pathological examination, H.E. staining and oil red O staining (Wuhan Zishan Biotechnology Co., Ltd.) were performed, and mouse liver lesions were observed under light microscope; routine examination of blood was performed by Animal Laboratory Department, Health Science Center of Peking University to measure the following indexes: white blood cell count (WBC), red blood cell count (RBC), lymphocyte count (LY), platelet (PLT) and so on; biochemical laboratory examination of blood was performed by Laboratory Medicine, Third Hospital, Peking University to measure the following indexes: triglycerides (TG), total cholesterol (T-CHO), high-density lipoprotein cholesterol (HDL-C), low-density lipoprotein cholesterol (LDL-C) and so on.

A short description of data set [1]: Metabolism of BJMU-2 by the liver.
The test system of another data set is phosphorylated GSK3β. Briefly: Phosphorylated GSK3β level by Western blotting in HepG2. The data set is classed as cell-based, human. Particulars: 1 μM, 24 hours, HepG2, Western blotting (FIG. 6B). An excerpt:
Carnitine palmitoyltransferase (CPT1α) is a rate-limiting enzyme of fatty acid oxidation. When the body or tissues are lacking in energy, CPT1α catalyzes the entry of fatty acids into mitochondria for […], and at the same time, CPT1α is also involved in the regulation of fatty acid-induced insulin resistance and inflammation. Protein kinase B/glycogen synthase kinase 3β (AKT/GSK3β) signaling pathway and insulin receptor substrate 1 (IRS-1) are key signaling pathways that regulate glucose metabolism in response to insulin signal. Therefore, by determining the effects of compounds on the CPT1α protein level and the AKT, GSK3β and IRS-1 protein phosphorylation levels, it is possible to evaluate the regulatory effects of the compounds on glycolipid metabolism.
After human liver cancer cells HepG2 were incubated with the compound of the present application or the control drug at 1 μM for 24 hours, the CPT1α protein level and the AKT, GSK3β and IRS-1 phosphorylated protein levels in the cells were determined by Western blotting; after gray-scale scanning by using Image J15.0.1, normalization was performed by using β-tubulin protein level as internal control, and the quantitative analysis results were shown in FIG. 6.

[2] abbreviates: 50 mg/kg intragastric once a day for 28 days.

Molecules are shown by their SMILES.

On to `Cc1cc(OCCCC(C)(C)C(=O)O)c(C)cc1Br` [BJMU-2, 5-(4-bromo-2,5-dimethylphenoxy)-2,2-dimethylpentanoic acid], for which, in the data set with db/db mice (setting [2]), the “activity of lowering triglycerides (in words)” value is recorded as “had an activity of lowering triglycerides better than gemfibrozil” and the “total cholesterol content in blood (in words)” value is recorded as “could reduce the total cholesterol content in the blood”. Moreover, in the data set on db/db mice, the blood glucose level result is given as “could significantly reduce the blood glucose level”, the “AHDL (high density lipoprotein)” value was 1.59 ± 0.13 mmol/L, the “ALDL (low density lipoprotein)” value came out at 0.33 ± 0.09 mmol/L and the ALT was 187.75 ± 62.07 U/L. Besides, in the data set with db/db mice, the AST is 210.75 ± 56.97 U/L, the BUN is 7.23 ± 1.19 mmol/L, the “CHOL (total cholesterol)” value amounted to 3.06 ± 0.63 mmol/L and the CK is recorded as 1790.75 ± 388.38 U/L. In the data set with db/db mice, the CREA was 10.13 ± 5.25 µmol/L; the “TGL (triglycerides)” value is listed as 1.44 ± 0.42 mmol/L; the “fat content in the liver (Oil red O and H.E. staining)” value is given as “could significantly reduce the fat content in the liver”. Further, in data set [1], the “metabolism by the liver” value was “could be metabolized by the liver to produce metabolites BJMU-415 and 502”. Also, the “phosphorylation level of GSK3β” value in the data set on phosphorylated GSK3β is “significantly increased the phosphorylation level of GSK3β”.

As for `Cc1ccc(C)c(OCCCC(C)(C)C(=O)O)c1` [gemfibrozil, Gemfibrozil, reference compound], the “total cholesterol content in blood (in words)” value in the data set with db/db mice (setting [2]) is “did not show the activity of lowering total cholesterol in blood”. Moreover, in the data set on db/db mice, the blood glucose level entry is recorded as “did not show obvious hypoglycemic activity”, the “AHDL (high density lipoprotein)” value is recorded as 1.64 ± 0.28 mmol/L, the “ALDL (low density lipoprotein)” value was 0.35 ± 0.02 mmol/L and the ALT is recorded as 172.25 ± 123^ U/L. Besides, in the data set with db/db mice, the AST turned out to be 225 ± 132.19 U/L, the BUN amounted to 9.56 ± 1.57 mmol/L, the “CHOL (total cholesterol)” value was determined as 3.37 ± 0.36 mmol/L and the CK stood at 1037 ± 523.17 U/L. In the data set with db/db mice, the CREA came to 16 ± 10.46 µmol/L; the “TGL (triglycerides)” value came to 2.09 ± 0.95 mmol/L; the “fat content in the liver (Oil red O and H.E. staining)” value was “neither gemfibrozil nor pioglitazone showed the above activity”.

(Values after patent publication US12365643B2, “Phenoxy carboxylic acid compounds and medical uses thereof” (QINGDAO RISING BIOTECHNOLOGY CO., LTD, priority 2018, dated 2025).)
